From ChEMBL document CHEMBL3217418, “Design, synthesis and biological activity evaluation of regioisomeric spiro-(indoline-isoxazolidines) in the inhibition of TNF--induced ICAM-1 expression on human endothelial cells” (Medchemcomm, 2012)
Calls of active or inactive are those of the source. The rule behind the calls is not given here.

Assays:
[1] = Cytotoxicity against HUVEC assessed as cell viability after 24 hrs by MTT assay relative to control; type: cell-based; set-up: concentration or dose not given beside the values; details: human, HUVEC cells; read-out: Activity
[2] = Cytotoxicity against HUVEC assessed as concentration at which viability is > 95 % after 24 hrs by MTT assay; type: cell-based; details: human, HUVEC cells; read-out: MTD
HUVEC = test: Antiinflammatory activity in HUVEC assessed as inhibition of TNFalpha-induced ICAM-1 expression incubated for 2 hrs prior to TNFalpha challenge measured after 16 hrs by ELISA; type: functional, cell-based; details: Homo sapiens
[3] = molecular target: Transcription factor p65 (Homo sapiens) (UniProt Q04206); test: Inhibition of NF-kappaB p65 subunit translocation from cytoplasm to nucleus in HUVEC at 100 uM incubated for 2 hrs prior to TNFalpha challenge measured after 30 mins by SDS-PAGE
Neutrophil = test: Inhibition of human neutrophil adhesion to human endothelial cells incubated for 2 hrs prior to TNFalpha challenge measured after 6 hrs by spectroscopy; type: functional, cell-based
[4] = molecular target: Transcription factor p65 (Homo sapiens) (UniProt Q04206); test: Inhibition of NF-kappaB p65 subunit translocation from cytoplasm to nucleus in HUVEC at 1 to 100 uM incubated for 2 hrs prior to TNFalpha challenge measured after 30 mins by SDS-PAGE
[5] = molecular target: Transcription factor p65 (Homo sapiens) (UniProt Q04206); test: Inhibition of NF-kappaB p65 subunit translocation from cytoplasm to nucleus in HUVEC assessed as NF-kappaB p65 subunit level in nuclear extract at 1 to 100 uM incubated for 2 hrs prior to TNFalpha challenge measured after 30 mins by densitometry
[6] = molecular target: Transcription factor p65 (Homo sapiens) (UniProt Q04206); test: Inhibition of NF-kappaB p65 subunit translocation from cytoplasm to nucleus in HUVEC assessed as NF-kappaB p65 subunit level in cytoplasm at 1 to 100 uM incubated for 2 hrs prior to TNFalpha challenge measured after 30 mins by densitometry

Transcription factor p65 (Homo sapiens), sequence (Q04206 whole entry): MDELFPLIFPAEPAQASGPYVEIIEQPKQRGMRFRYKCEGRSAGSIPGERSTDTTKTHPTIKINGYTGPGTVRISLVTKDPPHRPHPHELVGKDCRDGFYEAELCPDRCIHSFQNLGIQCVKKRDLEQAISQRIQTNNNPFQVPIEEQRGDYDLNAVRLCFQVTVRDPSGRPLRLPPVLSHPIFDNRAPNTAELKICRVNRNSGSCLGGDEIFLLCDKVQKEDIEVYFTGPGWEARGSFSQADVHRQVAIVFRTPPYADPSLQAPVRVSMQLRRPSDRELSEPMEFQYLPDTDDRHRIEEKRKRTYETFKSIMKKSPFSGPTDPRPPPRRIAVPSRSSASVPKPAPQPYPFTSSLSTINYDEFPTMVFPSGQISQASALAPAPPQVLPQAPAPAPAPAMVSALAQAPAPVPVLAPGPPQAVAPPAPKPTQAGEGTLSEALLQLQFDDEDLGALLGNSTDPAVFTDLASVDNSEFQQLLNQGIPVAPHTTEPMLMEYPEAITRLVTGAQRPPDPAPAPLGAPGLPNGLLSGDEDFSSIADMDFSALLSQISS

Compound | viability at 24 h [1] [%] | MNTC at 24 h [2] [µM] | IC50 (HUVEC) [µM] | other results
CCOC(=O)C1ON(c2ccccc2)C(c2ccc([N+](=O)[O-])cc2)C12C(=O)Nc1ccc(F)cc12 (stereo not given) | 97 | 105 | 32 | 
S=C(S)N1CCCC1 |  |  |  | inhibition [3]: Active
CCOC(=O)C1ON(c2ccccc2)C(c2cccc(C)c2)C12C(=O)Nc1ccc(F)cc12 (stereo not given) | 98 | 112 | 45 | 
CCOC(=O)C1ON(c2ccccc2)C(c2ccc(F)cc2)C12C(=O)Nc1ccccc12 (stereo not given) | 96 | 116 | 51 | 
CCOC(=O)C1C(c2cccc(C)c2)N(c2ccccc2)OC12C(=O)Nc1ccccc12 (stereo not given) | 96 | 234 | 57 | 
CCOC(=O)C1C(c2cccc([N+](=O)[O-])c2)N(c2ccccc2)OC12C(=O)Nc1ccccc12 (stereo not given) | 98 | 218 | 45 | 
CCOC(=O)C1ON(c2ccccc2)C(c2cccc(Cl)c2)C12C(=O)Nc1ccccc12 (stereo not given) | 96 | 223 | 25 | 
CCOC(=O)C1ON(c2ccccc2)C(c2ccc(Cl)cc2)C12C(=O)Nc1ccc(F)cc12 (stereo not given) | 96 | 107 | 54 | 
CCOC(=O)C1ON(c2ccccc2)C(c2ccc([N+](=O)[O-])cc2)C12C(=O)Nc1ccccc12 (stereo not given) | 97 | 218 | > 217 | 
CCOC(=O)C1C(c2ccc([N+](=O)[O-])cc2)N(c2ccccc2)OC12C(=O)Nc1ccccc12 (stereo not given) | 97 | 218 | > 217 | 
CCOC(=O)C1C(c2cccc(F)c2)N(c2ccccc2)OC12C(=O)Nc1ccccc12 (stereo not given) | 98 | 116 | 35 | 
CCOC(=O)C1C(c2ccc(Br)cc2)N(c2ccccc2)OC12C(=O)Nc1ccccc12 (stereo not given) | 96 | 203 | 41 | 
CCOC(=O)C1C(c2ccc(Cl)cc2)N(c2ccccc2)OC12C(=O)Nc1ccccc12 (stereo not given) | 96 | 223 | > 223 | 
CCOC(=O)C1ON(c2ccccc2)C(c2ccc(F)cc2)C12C(=O)Nc1ccc(F)cc12 (stereo not given) | 96 | 111 | > 111 | 
CCOC(=O)C1ON(c2ccccc2)C(c2ccc(OC)cc2)C12C(=O)Nc1ccc(F)cc12 (stereo not given) | 96 | 108 | 42 | 
CCOC(=O)C1ON(c2ccccc2)C(c2ccc(C(F)(F)F)cc2)C12C(=O)Nc1ccc(F)cc12 (stereo not given) | 96 | 100 | 57 | 
CCOC(=O)C1ON(c2ccccc2)C(c2cccc(F)c2)C12C(=O)Nc1ccccc12 (stereo not given) | 98 | 231 | > 162 | 
CCOC(=O)C1C(c2cccc(OC)c2OC)N(c2ccccc2)OC12C(=O)Nc1ccc(F)cc12 (stereo not given) | 99 | 102 | 27 | 
CCOC(=O)C1ON(c2ccccc2)C(c2cccc(OC)c2OC)C12C(=O)Nc1ccc(F)cc12 (stereo not given) | 98 | 102 | 32 | 
O=C(/C=C/C=C/c1ccc2c(c1)OCO2)N1CCCCC1 [PIPERINE] | 98 | 250 | 100 | 

Compound | viability at 24 h [1] [%] | MNTC at 24 h [2] [µM] | IC50 (HUVEC) [µM] | other results
CCOC(=O)C1ON(c2ccccc2)C(c2cccc(Br)c2)C12C(=O)Nc1ccccc12 (stereo not given) | 95 | 203 | 57 | 
CCOC(=O)C1ON(c2ccccc2)C(c2ccc(OCC)cc2)C12C(=O)Nc1ccc(F)cc12 (stereo not given) | 97 | 105 | 12 | IC50 (Neutrophil): 12.5 µM; inhibition (Neutrophil): Dose-dependent effect; inhibition [4]: Dose-dependent effect; inhibition [5]: Active; inhibition [6]: Active
CCOC(=O)C1C(c2cccc(Br)c2)N(c2ccccc2)OC12C(=O)Nc1ccccc12 (stereo not given) | 95 | 203 | 100 | 
CCOC(=O)C1C(c2ccc(C)cc2)N(c2ccccc2)OC12C(=O)Nc1ccccc12 (stereo not given) | 96 | 234 | 31 | 
CCOC(=O)C1ON(c2ccccc2)C(c2ccc(Br)cc2)C12C(=O)Nc1ccc(F)cc12 (stereo not given) | 98 | 98 | 35 | 
CCOC(=O)C1ON(c2ccccc2)C(c2ccc(Cl)cc2)C12C(=O)Nc1ccccc12 (stereo not given) | 96 | 223 | 147 | 
CCOC(=O)C1ON(c2ccccc2)C(c2ccc(Br)cc2)C12C(=O)Nc1ccccc12 (stereo not given) | 98 | 203 | 51 | 
CCOC(=O)C1ON(c2ccccc2)C(c2cc(OC)c(OC)c(OC)c2)C12C(=O)Nc1ccc(F)cc12 (stereo not given) | 97 | 96 | 29 | 
CCOC(=O)C1ON(c2ccccc2)C(c2ccc(N(C)C)cc2)C12C(=O)Nc1ccc(F)cc12 (stereo not given) | 96 | 110 | 26 | 
CCOC(=O)C1ON(c2ccccc2)C(c2cccc([N+](=O)[O-])c2)C12C(=O)Nc1ccccc12 (stereo not given) | 96 | 218 | 169 | 
CCOC(=O)C1ON(c2ccccc2)C(c2ccccc2F)C12C(=O)Nc1ccc(F)cc12 (stereo not given) | 96 | 111 | 51 | 
CCOC(=O)C1ON(c2ccccc2)C(c2ccc(C#N)cc2)C12C(=O)Nc1ccc(F)cc12 (stereo not given) | 96 | 110 | 48 | 
CCOC(=O)C1ON(c2ccccc2)C(c2cccc(F)c2)C12C(=O)Nc1ccc(F)cc12 (stereo not given) | 95 | 111 | 66 | 
CCOC(=O)C1C(c2ccc(F)cc2)N(c2ccccc2)OC12C(=O)Nc1ccccc12 (stereo not given) | 96 | 231 | 146 | 
CCOC(=O)C1C(c2cccc(Cl)c2)N(c2ccccc2)OC12C(=O)Nc1ccccc12 (stereo not given) | 97 | 223 | 35 | 
CCOC(=O)C1ON(c2ccccc2)C(c2ccc(F)c(F)c2)C12C(=O)Nc1ccc(F)cc12 (stereo not given) | 95 | 107 | 62 | 
CCOC(=O)C1ON(c2ccccc2)C(c2ccc(C)cc2)C12C(=O)Nc1ccccc12 (stereo not given) | 99 | 234 | 52 | 
CCOC(=O)C1ON(c2ccccc2)C(c2cccc(C)c2)C12C(=O)Nc1ccccc12 (stereo not given) | 98 | 234 | 35 | 
CCOC(=O)C1C(c2ccc(C#N)cc2)N(c2ccccc2)OC12C(=O)Nc1ccc(F)cc12 (stereo not given) | 98 | 110 | 49 | 
